Source: patent publication US20250188069A1, “COMPOUNDS AND METHODS FOR DEGRADING CASEIN KINASE 1 ALPHA” (PIN THERAPEUTICS, INC., priority 2022, published 2025)
pIC50: −log10 of the molar value. Where two headings read alike, the source gives them in different places.

What was measured:
Format in all cases: cell-based
MV-4-11 cells = experiment: AML cell viability assay (RealTime-Glo); conditions: Homo sapiens, read-out: Cell viability classification
CK1α [1] = molecular target: T1, CK1α (Homo sapiens, UniProt P48729+Q96SW2); experiment: CK1α HiBiT assay in CK1a_HiBiT_Jurkat cells; conditions: DC50 class, 16 hours, Nano-Glo HiBiT Lytic Detection, read-out: CK1α degradation classification
T1 sequence (P48729 whole entry): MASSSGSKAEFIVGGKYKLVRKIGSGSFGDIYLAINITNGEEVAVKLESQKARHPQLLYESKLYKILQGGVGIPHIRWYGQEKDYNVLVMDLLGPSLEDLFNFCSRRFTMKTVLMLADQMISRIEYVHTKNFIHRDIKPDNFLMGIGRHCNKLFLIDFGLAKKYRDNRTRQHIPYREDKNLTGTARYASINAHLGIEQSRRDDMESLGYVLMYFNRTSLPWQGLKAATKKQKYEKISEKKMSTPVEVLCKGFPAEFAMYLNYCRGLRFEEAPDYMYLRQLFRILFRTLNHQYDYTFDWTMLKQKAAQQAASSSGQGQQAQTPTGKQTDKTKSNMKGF
T1 sequence (Q96SW2 whole entry): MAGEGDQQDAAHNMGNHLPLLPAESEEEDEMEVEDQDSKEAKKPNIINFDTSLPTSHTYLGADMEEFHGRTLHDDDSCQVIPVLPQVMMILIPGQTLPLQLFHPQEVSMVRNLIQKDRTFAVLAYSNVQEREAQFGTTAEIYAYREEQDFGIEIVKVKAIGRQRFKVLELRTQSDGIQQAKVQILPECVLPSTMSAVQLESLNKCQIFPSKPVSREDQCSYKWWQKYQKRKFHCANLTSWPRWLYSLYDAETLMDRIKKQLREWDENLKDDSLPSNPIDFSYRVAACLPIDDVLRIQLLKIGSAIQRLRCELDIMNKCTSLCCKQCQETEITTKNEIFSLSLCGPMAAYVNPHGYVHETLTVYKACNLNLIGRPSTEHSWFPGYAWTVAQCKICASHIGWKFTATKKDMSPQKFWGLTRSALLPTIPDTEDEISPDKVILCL
T1 sequence (Q16531 whole entry partner): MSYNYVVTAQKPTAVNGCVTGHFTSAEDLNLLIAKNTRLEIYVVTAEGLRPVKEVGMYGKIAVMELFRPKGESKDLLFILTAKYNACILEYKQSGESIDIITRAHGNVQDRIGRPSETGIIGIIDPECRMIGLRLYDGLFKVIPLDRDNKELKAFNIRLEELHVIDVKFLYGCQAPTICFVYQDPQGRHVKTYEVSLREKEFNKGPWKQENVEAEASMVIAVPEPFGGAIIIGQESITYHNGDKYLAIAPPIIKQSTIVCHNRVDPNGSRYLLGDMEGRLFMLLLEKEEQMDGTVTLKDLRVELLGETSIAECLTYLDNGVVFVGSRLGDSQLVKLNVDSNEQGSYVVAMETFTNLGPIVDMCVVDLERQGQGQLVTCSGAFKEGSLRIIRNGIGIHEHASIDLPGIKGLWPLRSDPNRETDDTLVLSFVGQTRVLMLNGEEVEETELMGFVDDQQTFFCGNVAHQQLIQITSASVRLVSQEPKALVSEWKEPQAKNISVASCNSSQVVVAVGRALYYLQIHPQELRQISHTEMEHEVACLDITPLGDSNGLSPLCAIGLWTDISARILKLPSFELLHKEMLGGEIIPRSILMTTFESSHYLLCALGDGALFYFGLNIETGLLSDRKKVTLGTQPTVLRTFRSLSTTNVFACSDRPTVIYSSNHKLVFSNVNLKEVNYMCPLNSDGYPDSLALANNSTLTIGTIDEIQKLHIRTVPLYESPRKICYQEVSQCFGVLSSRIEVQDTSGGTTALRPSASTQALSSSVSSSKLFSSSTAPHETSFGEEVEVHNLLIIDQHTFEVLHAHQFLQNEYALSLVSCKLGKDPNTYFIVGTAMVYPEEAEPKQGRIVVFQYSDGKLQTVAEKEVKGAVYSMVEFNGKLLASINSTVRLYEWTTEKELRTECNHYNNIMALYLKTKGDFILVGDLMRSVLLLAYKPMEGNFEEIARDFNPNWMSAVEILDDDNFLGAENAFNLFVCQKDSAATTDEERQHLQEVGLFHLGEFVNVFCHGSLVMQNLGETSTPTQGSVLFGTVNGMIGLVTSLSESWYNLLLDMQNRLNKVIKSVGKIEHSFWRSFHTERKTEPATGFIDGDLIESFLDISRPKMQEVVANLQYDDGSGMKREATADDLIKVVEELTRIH
Procedure: CK1a_HiBiT_Jurkat cells were culture in RPMI 1640 medium (Gibco, 11875093) with 10% FBS under standard tissue culture conditions. Briefly, Compounds of the present disclosure was added to 30,000 cells in a white 96-well plate (9-point dose response, top concentration […], half-log serial dilution, final DMSO concentration 0.5%) and incubated for 16 hours. CK1a level was determined in along with the Nano-Glo HiBiT Lytic Detection system [Promega N3050] with final concentration of 1 x. The luminescence was normalized to that of DMSO-treated samples. DC50 values were obtained using three-parameter non-linear regressions using Prism (GraphPad). The compounds are classified based on DC50 values as follows. • A: DC50 is less than or equal to 1×10^−7; • B: DC50 is greater than 1×10^−7 & less than or equal to 1×10^−6; • C: DC50 is greater than 1×10^−6; • NA: not calculated (no activity detected, <25% viability reduction at 1 uM)

CK1α [2] = molecular target: T1, CK1α; experiment: CK1α degradation, flow cytometry in MV4-11 cells; parameters: CK1α levels were determined in MV-4-11 cells using Jess (Protein Simple); host or cells: MV-4-11; conditions: % reduction of CK1α compared to DMSO, MV4-11 cells at 316 nM for 16 hours, read-out: CK1α degradation classification
[3] = MV4-11, IC50 class, MV-4-11 cells, RealTime-Glo after 44 hrs of treatment (TABLE 5)
[4] = MV4-11, IC50 class, MV-4-11 cells, RealTime-Glo after 44 hrs of treatment (TABLE 3)

| SMILES | DC50 (CK1α [1]) [µM] | Dmax at 0.316 µM (CK1α [2]) [%] | pIC50 (MV-4-11 cells; [4]) | further results |
| --- | --- | --- | --- | --- |
| CC1(C)CC(CN(c2cccc3c2CN(C2CCC(=O)NC2=O)C3=O)[C@H]2CC[C@H](NCCC(F)(F)F)CC2)C1 (single isomer, unassigned) [Compound 652A, 3-(4-{[(3,3-dimethylcyclobutyl)methyl][(1s,4s)-4-[(3,3,3-trifluoropropyl)amino]cyclohexyl]amino}-1-oxo-3H-isoindol-2-yl)piperidine-2,6-dione; bis(trifluoroacetic acid)] | > 1 | – | – | pIC50 (MV-4-11 cells; [3]): < 6.00 |
| O=C1CCC(N2Cc3c(cccc3N(CCC3CC3)[C@H]3CC[C@H](NC(CF)CF)CC3)C2=O)C(=O)N1 (stereo partly drawn) [Compound 540, 3-{4-[(2-cyclopropylethyl)[(1r,4r)-4-[(1,3-difluoropropan-2-yl)amino]cyclohexyl]amino]-1-oxo-3H-isoindol-2-yl}piperidine-2,6-dione] | – | 50 to 75 | – | pIC50 (MV-4-11 cells; MV4-11, 44 h): 6.00 to 7.00 |
| COC(C)(C)CN[C@H]1CC[C@H](N(CCC2CC2)c2cccc3c2CN(C2CCC(=O)NC2=O)C3=O)CC1 (stereo partly drawn) [Compound 541, 3-(4-((2-cyclopropylethyl)((1r,4r)-4-((2-methoxy-2-methylpropyl)amino)cyclohexyl)amino)-1-oxoisoindolin-2-yl)piperidine-2,6-dione] | – | > 75 | > 7.00 | – |
| COC(C)(C)CN[C@H]1CC[C@@H](N(CCC2CC2)c2cccc3c2CN(C2CCC(=O)NC2=O)C3=O)CC1 (stereo partly drawn) [Compound 541A, 3-(4-((2-cyclopropylethyl)((1s,4s)-4-((2-methoxy-2-methylpropyl)amino)cyclohexyl)amino)-1-oxoisoindolin-2-yl)piperidine-2,6-dione] | – | 50 to 75 | 6.00 to 7.00 | – |
| COCCN[C@H]1CC[C@H](N(CCC2CC2)c2cccc3c2CN(C2CCC(=O)NC2=O)C3=O)CC1 (stereo partly drawn) [Compound 542, 3-{4-[(2-cyclopropylethyl)[(1r,4r)-4-[(2-methoxyethyl)amino]cyclohexyl]amino]-1-oxo-3H-isoindol-2-yl}piperidine-2,6-dione] | – | > 75 | > 7.00 | – |
| N#CCCCN[C@H]1CC[C@H](N(CCC2CC2)c2cccc3c2CN(C2CCC(=O)NC2=O)C3=O)CC1 (stereo partly drawn) [Compound 543, 4-{[(1r,4r)-4-[(2-cyclopropylethyl)[2-(2,6-dioxopiperidin-3-yl)-1-oxo-3H-isoindol-4-yl]amino]cyclohexyl]amino}butanenitrile] | – | > 75 | > 7.00 | – |
| O=C1CCC(N2Cc3c(cccc3N(CCC3CC3)[C@H]3CC[C@H](NCC(=O)N4CCC4)CC3)C2=O)C(=O)N1 (stereo partly drawn) [Compound 546, 3-{4-[(2-cyclopropylethyl)[(1r,4r)-4-{[2-(azetidin-1-yl)-2-oxoethyl]amino}cyclohexyl]amino]-1-oxo-3H-isoindol-2-yl}piperidine-2,6 dione] | – | > 75 | > 7.00 | – |
| CC(CC(F)(F)F)N[C@H]1CC[C@H](N(CCC2CC2)c2cccc3c2CN(C2CCC(=O)NC2=O)C3=O)CC1 (stereo partly drawn) [Compound 547, 3-{4-[(2-cyclopropylethyl)[(1r,4r)-4-[(4,4,4-trifluorobutan-2-yl)amino]cyclohexyl]amino]-1-oxo-3H-isoindol-2-yl}piperidine-2,6-dione] | – | > 75 | > 7.00 | – |
| C[C@@H](N[C@H]1CC[C@H](N(CCC2CC2)c2cccc3c2CN(C2CCC(=O)NC2=O)C3=O)CC1)C(F)(F)F (stereo partly drawn) [Compound 548, 3-(4-((2-cyclopropylethyl)((1r,4r)-4-(((R)-1,1,1-trifluoropropan-2-yl)amino)cyclohexyl)amino)-1-oxoisoindolin-2-yl)piperidine-2,6-dione] | – | < 50 | 6.00 to 7.00 | – |
| C[C@@H](N[C@H]1CC[C@@H](N(CCC2CC2)c2cccc3c2CN(C2CCC(=O)NC2=O)C3=O)CC1)C(F)(F)F (stereo partly drawn) [Compound 548A, 3-(4-((2-cyclopropylethyl)((1s,4s)-4-(((R)-1,1,1-trifluoropropan-2-yl)amino)cyclohexyl)amino)-1-oxoisoindolin-2-yl)piperidine-2,6-dione] | – | 50 to 75 | 6.00 to 7.00 | – |
| O=C1CCC(N2Cc3c(cccc3N(CCC3CC3)[C@H]3CC[C@@H](NCCCC(F)(F)F)CC3)C2=O)C(=O)N1 (stereo partly drawn) [Compound 642A] | ≤ 0.1 | – | – | pIC50 (MV-4-11 cells; [3]): < 6.00 |
| O=C1CCC(N2Cc3c(cccc3N(CC3CC(F)(F)C3)[C@H]3CC[C@@H](NCCC(F)(F)F)CC3)C2=O)C(=O)N1 (stereo partly drawn) [Compound 650A, 3-(4-{[(3,3-difluorocyclobutyl)methyl][(1s,4s)-4-[(3,3,3-trifluoropropyl)amino]cyclohexyl]amino}-1-oxo-3H-isoindol-2-yl)piperidine-2,6-dione] | > 1 | – | – | – |
| O=C1CCC(N2Cc3c(cccc3N(CC3CC(F)(F)C3)[C@H]3CC[C@@H](NCC4(C(F)(F)F)CC4)CC3)C2=O)C(=O)N1 (stereo partly drawn) [Compound 655A, 3-(4-{[(3,3-difluorocyclobutyl)methyl][(1s,4s)-4-({[1-(trifluoromethyl)cyclopropyl]methyl}amino)cyclohexyl]amino}-1-oxo-3H-isoindol-2-yl)piperidine-2,6-dione] | > 1 | – | – | – |
| O=C1CCC(N2Cc3c(cccc3N(CC3CC4(CCC4)C3)[C@H]3CC[C@@H](NCC4(C(F)(F)F)CC4)CC3)C2=O)C(=O)N1 (stereo partly drawn) [Compound 656A, 3-(1-oxo-4-{[(1s,4s)-4-({[1-(trifluoromethyl)cyclopropyl]methyl}amino)cyclohexyl]({spiro[3.3]heptan-2-ylmethyl})amino}-3H-isoindol-2-yl)piperidine-2,6-dione; trifluoroacetic acid] | > 1 | – | – | – |
| CC1(C)CC(CN(c2cccc3c2CN(C2CCC(=O)NC2=O)C3=O)[C@H]2CC[C@@H](NCC3(C(F)(F)F)CC3)CC2)C1 (stereo partly drawn) [Compound 657A, 3-(4-{[(3,3-dimethylcyclobutyl)methyl][(1s,4s)-4-({[1-(trifluoromethyl)cyclopropyl]methyl}amino)cyclohexyl]amino}-1-oxo-3H-isoindol-2-yl)piperidine-2,6-dione; bis(trifluoroacetic acid)] | > 1 | – | – | – |
| O=C1CCC(N2Cc3c(cccc3N(CCC3CC3)[C@H]3CC[C@@H](N4CCCC4)CC3)C2=O)C(=O)N1 (stereo partly drawn) [Compound 669A] | 0.1 to 1 | – | – | – |
| O=C1CCC(N2Cc3c(cccc3N(CCC3CC3)[C@H]3CC[C@@H](N4CCC(F)(F)C4)CC3)C2=O)C(=O)N1 (stereo partly drawn) [Compound 670A] | 0.1 to 1 | – | – | – |
| O=C1CCC(N2Cc3c(cccc3N(CCC3CC3)[C@H]3CC[C@@H](N4CCC(F)C4)CC3)C2=O)C(=O)N1 (stereo partly drawn) [Compound 671A, 3-{4-[(2-cyclopropylethyl)[(1s,4s)-4-(3-fluoropyrrolidin-1-yl)cyclohexyl]amino]-1-oxo-3H-isoindol-2-yl}piperidine-2,6-dione] | 0.1 to 1 | – | – | – |
| O=C1CCC(N2Cc3c(cccc3N(CCC3CC3)[C@H]3CC[C@@H](N4CCC(C(F)(F)F)C4)CC3)C2=O)C(=O)N1 (stereo partly drawn) [Compound 672A, 3-{4-[(2-cyclopropylethyl)[(1s,4s)-4-[3-(trifluoromethyl)pyrrolidin-1-yl]cyclohexyl]amino]-1-oxo-3H-isoindol-2-yl}piperidine-2,6-dione; trifluoroacetic acid] | 0.1 to 1 | – | – | – |
| O=C1CCC(N2Cc3c(cccc3N(CCC3CC3)[C@H]3CC[C@@H](N4CC(C(F)(F)F)C4)CC3)C2=O)C(=O)N1 (stereo partly drawn) [Compound 673A] | 0.1 to 1 | – | – | – |
| O=C1CCC(N2Cc3c(cccc3N(CCC3CC3)[C@H]3CC[C@@H](N4CCOCC4)CC3)C2=O)C(=O)N1 (stereo partly drawn) [Compound 674A, 3-{4-[(2-cyclopropylethyl)[(1s,4s)-4-(morpholin-4-yl)cyclohexyl]amino]-1-oxo-3H-isoindol-2-yl}piperidine-2,6-dione] | 0.1 to 1 | – | – | – |
| O=C1CCC(N2Cc3c(cccc3N(CCC3CC3)[C@H]3CC[C@@H](N[C@H]4CC[C@@H]4C(F)(F)F)CC3)C2=O)C(=O)N1 (stereo partly drawn) [Compound 675A, 3-{4-[(2-cyclopropylethyl)[(1s,4s)-4-{[(1S,2S)-2-(trifluoromethyl)cyclobutyl]amino}cyclohexyl]amino]-1-oxo-3H-isoindol-2-yl}piperidine-2,6-dione; bis(trifluoroacetic acid)] | 0.1 to 1 | – | – | – |
| COCCN(C)[C@H]1CC[C@@H](N(CCC2CC2)c2cccc3c2CN(C2CCC(=O)NC2=O)C3=O)CC1 (stereo partly drawn) [Compound 680A] | 0.1 to 1 | – | – | – |
| CN(CCCC(F)(F)F)[C@H]1CC[C@@H](N(CCC2CC2)c2cccc3c2CN(C2CCC(=O)NC2=O)C3=O)CC1 (stereo partly drawn) [Compound 681A, 3-{4-[(2-cyclopropylethyl)[(1s,4s)-4-[methyl(4,4,4-trifluorobutyl)amino]cyclohexyl]amino]-1-oxo-3H-isoindol-2-yl}piperidine-2,6-dione] | 0.1 to 1 | – | – | – |
| CN(CCC(F)(F)F)[C@H]1CC[C@@H](N(CCC2CC2)c2cccc3c2CN(C2CCC(=O)NC2=O)C3=O)CC1 (stereo partly drawn) [Compound 682A] | 0.1 to 1 | – | – | – |
